Holding throughout (assay type): biochemical
For assay [1], the target named is T1, purified recombinant human Tdp1 (Homo sapiens, UniProt Q9NUW8).
T1 construct: made in house
Kind of assay: Real-time detection of Tdp1 activity (removal of BHQ1 from a 5′-FAM 16-nt oligonucleotide, fluorescence). Conditions: 1.5 nM Tdp1, 50 nM oligonucleotide, 25 °C, three independent experiments. The method, then: In this work, four natural nucleosides (1-4) and […] aromatic lipophilic derivatives of purine nucleosides (5a-f, 6a-d) were tested for Tdp1 activity. The used test system was based on the enzyme’s ability to remove Black Hole Quencher 1 (BHQ1) from the 3′ end of a 5′ FAM 16-nt oligonucleotide. As a result, an increase in FAM fluorescence was detected and the obtained kinetic curves were used to calculate the IC50 parameter (the concentration of the inhibitor at which the enzyme activity is reduced by half). We have found potent Tdp1 inhibitors with IC50 in the range from 0.3 to 7 μM (Table 1).
Purified human recombinant Tdp1 was prepared as described earlier. Real-time detection of Tdp1 activity was reported in our previous work. The approach consists of a fluorescence intensity measurement of the reaction of quencher removal from the fluorophore-quencher coupled DNA oligonucleotide catalyzed by Tdp1 in the presence of the inhibitor (the control samples contained 1% DMSO). The biosensor was single-stranded oligonucleotide (5′-[FAM] AAC GTC AGGGTC TTC C [BHQ]-3′) containing fluorophore at the 5′ end (5,6-FAM) and a Black Hole Quencher 1 (BHQ) at the 3′ end, and was synthesized in the Laboratory of nucleic acid chemistry at the Institute of Chemical Biology and Fundamental Medicine SB RAS, Novosibirsk, Russia. The reactions were incubated at a constant temperature 25 °C in a POLARstar OPTIMA fluorimeter, BMG LABTECH, GmbH, to measure fluorescence every 55 s (Ex485/Em520 nm) during the linear phase (here, the data are from 0 to 8 min). […] The IC50 values were determined using a six-point concentration response curve in three independent experiments and calculated using MARS Data Analysis 2.0 (BMG LABTECH).

For another assay, the target named is T2, human recombinant PARP1 (Homo sapiens, UniProt P09874).
T2 construct: made in house
Briefly: PARP1 activity by inclusion of α-[32P]-NAD+ in poly(ADP-ribose). The following applies: in the presence of 1 mM compound; read-out: Residual activity of PARP1. The method, then: Since it has previously been shown that nucleoside derivatives can inhibit enzymes of the PARP family, we also checked whether the studied compounds were able to inhibit the enzymes PARP1 and PARP2. […] Thus, when using our compounds, one cannot expect side effects from PARP1/2.
Purified human recombinant PARP1/2 [65] and [^32P] NAD^+ [27] were prepared as described earlier. The activity of PARP1/2 was evaluated by the rate of incorporation of the radioactive label into the acid-insoluble reaction product—PAR as described previously.

Another assay addresses T3, recombinant human Tdp1 (Homo sapiens, UniProt Q9NUW8).
T3 construct: made in house
Kind of assay: Steady-state kinetics of the Tdp1 reaction, type of inhibition (Vmax, KM). The following applies: dependence of Vmax and KM on inhibitor concentration. The procedure:
Then, the values of the Vmax and KM parameters were calculated from the kinetic curves obtained. The conclusion about the type of inhibition was made based on the dependence type of the calculated parameters on the concentration of the inhibitor. […] Such inhibitors, supposedly, will be more specific inhibitors of Tdp1, because they will bind to the enzyme only in the presence of the enzyme-substrate complex. […] For this reason, this compound needs additional study of its inhibition mechanism by other methods.
To determine the kinetic parameters: apparent maximum rate of enzymatic reaction (Vmax), Michaelis constant (KM), and possible inhibition mechanism, steady-state kinetic experiments of Tdp1 enzymatic reaction were carried out at […] fixed concentrations of the substrate with various inhibitor concentrations. The standard reaction mixtures (200 μL) contained 56 nM, 96 nM, 163 nM, 277 nM, 470 nM or 800 nM oligonucleotide substrate, testable inhibitor, 1.5 nM recombinant human Tdp1 and reaction buffer components (50 mM Tris-HCl, pH 8.0, 50 mM NaCl, 7 mM β-mercaptoethanol). After the addition of the enzyme, the reaction mixtures were incubated at a constant temperature of 26 °C and measured in a POLARstar OPTIMA fluorimeter, BMG LABTECH, GmbH, to measure fluorescence every 55 s (Ex485/Em520 nm) during the linear phase (data from 0 to 8 minutes). The initial data (kinetic curves) were obtained in three independent experiments and statistically processed in the software OriginPro 8.6.0.

Entries after “also recorded” stand apart in the source; their conditions may differ.

T1 sequence (Q9NUW8 whole entry): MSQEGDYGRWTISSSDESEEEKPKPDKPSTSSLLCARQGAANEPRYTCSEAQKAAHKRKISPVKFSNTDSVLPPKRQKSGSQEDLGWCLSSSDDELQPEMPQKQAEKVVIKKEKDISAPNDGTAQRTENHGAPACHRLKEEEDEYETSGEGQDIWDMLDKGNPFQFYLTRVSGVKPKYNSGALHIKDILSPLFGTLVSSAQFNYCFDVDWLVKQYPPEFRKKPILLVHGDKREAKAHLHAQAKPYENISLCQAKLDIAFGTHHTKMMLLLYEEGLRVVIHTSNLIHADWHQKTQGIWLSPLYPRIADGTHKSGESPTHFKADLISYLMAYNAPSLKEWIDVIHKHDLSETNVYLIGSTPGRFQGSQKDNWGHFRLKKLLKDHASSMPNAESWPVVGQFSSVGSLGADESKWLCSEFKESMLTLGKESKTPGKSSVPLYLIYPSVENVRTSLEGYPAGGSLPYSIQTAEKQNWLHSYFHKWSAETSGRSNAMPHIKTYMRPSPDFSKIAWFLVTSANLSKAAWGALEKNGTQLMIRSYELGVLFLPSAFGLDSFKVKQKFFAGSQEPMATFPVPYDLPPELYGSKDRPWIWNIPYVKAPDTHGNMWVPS
T3 sequence (Q9NUW8 whole entry): as above
T2 sequence (P09874 whole entry): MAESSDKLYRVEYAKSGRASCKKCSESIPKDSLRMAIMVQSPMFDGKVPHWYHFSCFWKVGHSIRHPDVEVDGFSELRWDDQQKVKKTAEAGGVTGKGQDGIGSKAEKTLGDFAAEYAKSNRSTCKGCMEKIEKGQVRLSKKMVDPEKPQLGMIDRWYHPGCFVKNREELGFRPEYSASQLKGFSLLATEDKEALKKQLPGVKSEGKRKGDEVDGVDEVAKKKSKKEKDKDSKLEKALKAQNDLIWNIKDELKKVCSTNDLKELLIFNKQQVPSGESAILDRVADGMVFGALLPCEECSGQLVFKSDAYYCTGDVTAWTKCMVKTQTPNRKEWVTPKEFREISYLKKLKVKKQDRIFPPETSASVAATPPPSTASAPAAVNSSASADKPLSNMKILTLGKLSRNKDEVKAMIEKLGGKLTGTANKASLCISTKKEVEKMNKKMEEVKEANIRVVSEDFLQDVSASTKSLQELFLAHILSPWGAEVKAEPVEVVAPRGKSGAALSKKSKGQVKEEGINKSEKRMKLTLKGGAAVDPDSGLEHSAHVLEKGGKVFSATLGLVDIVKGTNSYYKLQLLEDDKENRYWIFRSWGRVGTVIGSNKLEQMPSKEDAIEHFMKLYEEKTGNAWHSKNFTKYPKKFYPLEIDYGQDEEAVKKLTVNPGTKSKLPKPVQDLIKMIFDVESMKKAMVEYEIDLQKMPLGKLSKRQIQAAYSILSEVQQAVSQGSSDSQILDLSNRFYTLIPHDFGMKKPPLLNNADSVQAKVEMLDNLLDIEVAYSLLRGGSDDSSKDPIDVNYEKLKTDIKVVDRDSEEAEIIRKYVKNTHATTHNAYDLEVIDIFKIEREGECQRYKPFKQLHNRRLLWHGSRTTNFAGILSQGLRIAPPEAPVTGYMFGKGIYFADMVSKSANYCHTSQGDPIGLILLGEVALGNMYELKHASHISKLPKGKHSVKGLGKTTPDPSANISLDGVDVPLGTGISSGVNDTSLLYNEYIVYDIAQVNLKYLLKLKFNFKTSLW

Usually IC50 stands for the concentration needed to halve the response being measured. Take `O=C(OC[C@H]1O[C@@H](n2cnc3c(Cl)nc(Cl)nc32)[C@H](OC(=O)c2ccccc2)[C@@H]1OC(=O)c1ccccc1)c1ccccc1` [compound 6d, 2,6-dichloro-9-(2,3,5-tri-O-benzoyl-β-D-ribofuranosyl)purine]: the half-inhibitory concentration (IC50) in assay [1] came to 820 ± 20 nM. The remaining activity at 1000 µM at human recombinant PARP1 is 96 ± 12%. Besides, the “Type of inhibition of Tdp1” value on recombinant human Tdp1 was “uncompetitive type of inhibition; also recorded: uncompetitive mechanism”.
On to `O=C(OC[C@H]1O[C@@H](n2cnc3c(Cl)nc(F)nc32)[C@H](OC(=O)c2ccccc2)[C@@H]1OC(=O)c1ccccc1)c1ccccc1` [compound 6c, 2-Fluoro-6-chloro-9-(2,3,5-tri-O-benzoyl-β-D-ribofuranosyl)purine], for which the IC50 in assay [1] is 1000 ± 200 nM. For the same compound, the remaining activity at 1000 µM on human recombinant PARP1 turned out to be 82 ± 17%. Besides, the “Type of inhibition of Tdp1” value at recombinant human Tdp1 is reported as “uncompetitive type of inhibition; also recorded: nonlinear dependence”.
For `O[C@@H]1[C@H](O)[C@@H](COC(c2ccccc2)(c2ccccc2)c2ccccc2)O[C@H]1n1cnc2c(NC(c3ccccc3)(c3ccccc3)c3ccccc3)ncnc21` [compound 5f] the same measures were 300 ± 60 nM, 100 ± 10% and “uncompetitive type of inhibition”.
